For 4 molecules, Activity results are on record in ChEMBL document CHEMBL3046719, “Photooxygenation of Nimonol, a Tetranortriterpenoid from Azadirachta indica. A. Juss” (2002).

Assay type in all cases: functional
The subject of assay [1] is Spodoptera litura. Put plainly: Antifeedant activity against Spodoptera litura at 1 ug.
The test system of assay [2] is Spodoptera litura. Put plainly: Antifeedant activity against Spodoptera litura at 0.5 ug.
The test system of assay [3] is Spodoptera litura. Briefly: Antifeedant activity against Spodoptera litura at 5 ug.

With `CC(=O)O[C@@H]1[C@H](O)[C@H]2C(C)(C)C(=O)C=C[C@]2(C)[C@H]2CC[C@@]3(C)[C@H](C45CC(O)OC4O5)C[C@@H]4O[C@@]43[C@]12C` (some centres not stated) [NIMONOL PP2], the Activity in the assay on Spodoptera litura [1] is listed as 68.7%; in the assay with Spodoptera litura [2] it was 55.3%; in the assay with Spodoptera litura [3], 73.5%.

Regarding `C/C=C(\C)C(=O)O[C@H]1C[C@@H](OC(C)=O)[C@@]2(C(=O)OC)CO[C@H]3[C@@H](O)[C@@](C)([C@]45O[C@@]4(C)[C@@H]4C[C@H]5O[C@@H]5OC=C[C@@]54O)[C@H]4[C@]1(CO[C@]4(O)C(=O)OC)[C@@H]32` [AZADIRACHTIN A], the Activity was 85.5% in the assay on Spodoptera litura [1], 83.3% in the assay on Spodoptera litura [2] and 100% in the assay on Spodoptera litura [3].

`CC(=O)O[C@@H]1[C@H](O)[C@H]2C(C)(C)C(=O)C=C[C@]2(C)[C@H]2CC[C@@]3(C)[C@H](C4=CC(O)OC4=O)C[C@@H]4O[C@@]43[C@]12C` (some centres not stated) [NIMONOLIDE]: the Activity in the assay with Spodoptera litura [1] is 80.2%; with Spodoptera litura [2] it was 67.5%; with Spodoptera litura [3], 82.5%.

With `CC(=O)O[C@@H]1[C@H](O)[C@H]2C(C)(C)C(=O)C=C[C@]2(C)[C@H]2CC[C@]3(C)C(=CC[C@H]3c3ccoc3)[C@]12C` [NIMONOL], the results for the Activity in the assay on Spodoptera litura [1], in the assay on Spodoptera litura [2] and in the assay on Spodoptera litura [3] were 55.7%, 32.5% and 32.2%, respectively.
